For orientation: ED50 means the dose that gives a 50% effect, or the effect in half of the subjects.

The values that follow come from patent US4533655A, “Analgesic dipeptide amides and method of use and compositions thereof” (Sterling Drug Inc., priority 1982, dated 1985).

The test system of assay [1] is guinea pig ileum longitudinal muscle (electrically induced twitch). As to the kind of experiment: Guinea pig ileum test. The assay is classed as cell-based. To be noted: ratio of IC50 of reference Met^5-enkephalin to IC50 of test compound in same preparation, averaged (N=4); Met^5-enkephalin = 100. The method, then:
Adult male guinea pigs (Charles River, Hartley strain) weighing 300-500 g. are decapitated, and the terminal ileum is exposed by reflecting the overlying cecum, severed at the ileocecal juncture, and removed while cutting the mesenteric attachments to avoid excessive traction on the tissue. The ileum (about 30 cm. in length) is transferred to a beaker containing warm modified Krebs-Henseleit solution (118 mM sodium chloride, 4.75 mM potassium chloride, 2.54 mM calcium chloride, 1.19 mM potassium dihydrogen phosphate, 1.2 mM magnesium sulfate, 25 mM sodium bicarbonate, 11 mM glucose, 20 μM choline chloride and 0.125 μM pyrilamine maleate). The terminal (aboral) portion (about 10 cm. in length) is discarded, and segments (3-4 cm. in length) are cut from the remainder and gently slid onto a glass rod (5-6 mm. in diameter) and arranged so that the mesenteric attachment is in a straight line. A cotton swab moistened in the solution is then carefully used to separate the longitudinal muscle from the underlying circular muscle. The longitudinal muscle and adhering myenteric plexus is then gently removed from the remaining tissue with forceps.
Strips of this prepared longitudinal muscle are mounted in a double-jacketed organ bath (5 ml.) under tension (1.0 g.), connected to isometric transducers (Grass FT 0.03), bathed in the modified Krebs-Henseleit solution described above, aerated with oxygen-carbon dioxide (95:5) and maintained at 37° C.
Stimulators (Grass S-44) are set to deliver repetitive monophasic square wave field stimulation (supramaximal voltage, 0.10 Hz., 0.25 msec. duration) through platinum ring electrodes at the top and bottom of the bath. Regular contractions of the muscle, which result from electrically-induced liberation of acetylcholine from postganglionic parasympathetic nerves, are recorded on a polygraph (Grass model 5). Following tissue equilibration (45-60 min.) and repeated washing (every 10 min.) an aqueous solution of a reference or test compound is added to the bath in a microliter volume (1.25-250 μl) and reductions in muscle twitch height are recorded. More compound can be added […] first washing the preparation.
From the results a half-mazimal inhibitory concentration (IC50) value for the compound is computed by regression analysis of a linear plot of logarithm of concentration against percent of inhibition of twitch height (probits). The ratio of the IC50 value of a reference compound to that of a test compound tested in the same preparation is the molar potency ratio. Usually four preparations are tested simultaneously by the same person (N=4), and the resulting four molar potency ratios are averaged.
The following results were obtained using the examples as test compounds and Met^5 -enkephalin as the reference compound.

Another assay concerns Male Swiss-Webster mice. Kind of assay: Mouse acetylcholine writhing test. The assay is classed as in vivo. To be noted: 20 min, subcutaneous, acetylcholine 3.2 mg./kg. i.p. 20 min after dosing, 95% confidence limits in parentheses. As to the method:
Male Swiss-Webster mice each weighing 18-24 g. are treated subcutaneously (10 ml./kg. injection volume) or orally with the test compound in an aqueous vehicle. Twenty minutes thereafter each mouse is injected intraperitoneally with acetylcholine (3.2 mg./kg.) in aqueous sodium chloride (0.9%). This dose of acetylcholine causes one or more characteristic writhes in the two minute period following injection in control mice which receive the aqueous vehicle not containing the test compound. […] Test compounds are screened at doses of 100 and 30 mg./kg. subcutaneously and 300 and 100 mg./kg. orally using 15 mice at each dose level. ED50 values for active compounds are estimated by probit analysis of quantal scores at four or more dose levels using 15 mice at each dose level.

The test system of another assay is guinea pig ileum. To be noted: cited from earlier work.
The next assay has as its system mouse vas deferens. To be noted: cited from earlier work.
The test system of the next assay is rat. To be noted: rat tail flick, relative to morphine, cited from earlier work.

As to `CN[C@@H](Cc1ccc(O)cc1)C(=O)N(C)[C@H](C)C(=O)NCCCc1ccccc1` [Example 3, N-methyl-L-tyrosyl-N^2-methyl-N-(3-phenylpropyl)-D-alaninamide], in assay [1], the “Average Molar Potency Ratio” value amounted to 200. In the assay on Male Swiss-Webster mice, the ED50 was 9.4 mg/kg. The like results for `CN[C@@H](Cc1ccc(O)cc1)C(=O)N[C@H](C)C(=O)NCCCc1ccccc1` [Example 2, N-methyl-L-tyrosyl-N-(3-phenylpropyl)-D-alaninamide] were, in that order, 194 and 10 to 30 mg/kg. For `C[C@@H](NC(=O)[C@@H](N)Cc1ccc(O)cc1)C(=O)NCCNCCc1ccccc1` [HTyrD-AlaNH(CH2)2 NH(CH2)2 Phenyl], the “potency relative to Met-enkephaline” value in the assay on guinea pig ileum and in the assay with mouse vas deferens was less than 1% each time.

Regarding `C[C@H](C(=O)NCCCc1ccc(Cl)cc1)N(C)C(=O)[C@@H](N)Cc1ccc(O)cc1` [Example 5, L-tyrosyl-N^2-methyl-N-[3-(4-chlorophenyl)propyl]-D-alaninamide], in assay [1], the “Average Molar Potency Ratio” value is listed as 51. In the case of `C[C@@H](NC(=O)[C@@H](N)Cc1ccc(O)cc1)C(N)=O` [H-Tyr-D-Ala-NH2], in the assay on rat (intravenous), the “times less potent than morphine, intravenously” value was “greater than 10 times”. Moreover, the “times less potent than morphine, intraventricularly” value in the assay on rat (intraventricular) is recorded as 200 times. Consider `CCN(C(=O)[C@@H](N)Cc1ccc(O)cc1)[C@H](C)C(=O)NCCCc1ccccc1` [Example 4, L-tyrosyl-N^2-ethyl-N-(3-phenylpropyl)-D-alaninamide], for which the “Average Molar Potency Ratio” value in assay [1] is 12. Regarding `C[C@H](C(=O)NCCCc1ccc(C(F)(F)F)cc1)N(C)C(=O)[C@@H](N)Cc1ccc(O)cc1` [Example 6, L-tyrosyl-N^2-methyl-N-[3-(4-trifluoromethylphenyl)propyl]-D-alaninamide], in assay [1], the “Average Molar Potency Ratio” value came out at 13.

Take `C[C@H](C(=O)NCCCc1ccccc1)N(C)C(=O)[C@@H](N)Cc1ccc(O)cc1` [Example 1, L-tyrosyl-N^2-methyl-N-(3-phenylpropyl)-D-alaninamide]: in assay [1], the “Average Molar Potency Ratio” value stood at 293. The median effective dose (ED50) with Male Swiss-Webster mice was 5.5 mg/kg.

For `C[C@H](C(=O)NCCCc1ccc(F)cc1)N(C)C(=O)[C@@H](N)Cc1ccc(O)cc1` [Example 7, L-tyrosyl-N^2-methyl-N-[3-(4-fluorophenyl)propyl]-D-alaninamide], in assay [1], the “Average Molar Potency Ratio” value is 178.

For Met^5 -enkephalin [reference compound], the “Average Molar Potency Ratio” value in assay [1] is on record as 100.
